ChEMBL document CHEMBL1201861, “Genomics of Drug Sensitity in Cancer screening data, Wellcome Trust Sanger Institute”

How the values were obtained:
ECC12 = experiment: cells; assay type: functional, cell-based; conditions: Homo sapiens
Description: SANGER: Inhibition of human ECC12 cell growth in a cell viability assay.

EW-12 = experiment: SANGER: Inhibition of human EW-12 cell growth in a cell viability assay.; assay type: functional, cell-based
NCI-H2107 = experiment: SANGER: Inhibition of human NCI-H2107 cell growth in a cell viability assay.; assay type: functional, cell-based
H9 = experiment: cells; assay type: functional, cell-based, Homo sapiens; conditions: Homo sapiens, H9
Description: SANGER: Inhibition of human H9 cell growth in a cell viability assay.

NCI-H1666 = experiment: cells; assay type: functional, cell-based, Homo sapiens; conditions: Homo sapiens, NCI-H1666;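 further: growth inhibition of the cell line, read out with a cell viability assay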
Description: SANGER: Inhibition of human NCI-H1666 cell growth in a cell viability assay.

RH-18 = experiment: cells; assay type: functional, cell-based, Homo sapiens; conditions: Homo sapiens, Rh18;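 further: growth inhibition of human RH-18 cells, read out with a cell viability assay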
Description: SANGER: Inhibition of human RH-18 cell growth in a cell viability assay.

TGBC11TKB = experiment: cells; assay type: functional, cell-based, Homo sapiens; conditions: Homo sapiens, TGBC11TKB;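 further: growth inhibition of human TGBC11TKB cells, measured by a cell viability assay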
Description: SANGER: Inhibition of human TGBC11TKB cell growth in a cell viability assay.

CHP-134 = experiment: SANGER: Inhibition of human CHP-134 cell growth in a cell viability assay.; assay type: functional, cell-based
Calu-1 = experiment: SANGER: Inhibition of human Calu-1 cell growth in a cell viability assay.; assay type: functional, cell-based; conditions: Homo sapiens, Calu-1
Caov-3 cell line = experiment: cells; assay type: functional, cell-based, Homo sapiens; conditions: Homo sapiens, Caov-3;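 further: cell growth inhibition read out by a viability assay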
Description: SANGER: Inhibition of human Caov-3 cell growth in a cell viability assay.

EW-7 = experiment: SANGER: Inhibition of human EW-7 cell growth in a cell viability assay.; assay type: functional, cell-based; conditions: Homo sapiens, EW-7
HCC1143 = experiment: cells; assay type: functional, cell-based, Homo sapiens; conditions: Homo sapiens, HCC1143;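 further: growth inhibition of human HCC1143 cells, read out with a cell viability assay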
Description: SANGER: Inhibition of human HCC1143 cell growth in a cell viability assay.

IPC-298 = experiment: SANGER: Inhibition of human IPC-298 cell growth in a cell viability assay.; assay type: functional, cell-based; conditions: Homo sapiens, IPC-298
MDA-MB-468 = experiment: cells; assay type: functional, cell-based, Homo sapiens; conditions: Homo sapiens, MDA-MB-468
Description: SANGER: Inhibition of human MDA-MB-468 cell growth in a cell viability assay.

MFE-296 = experiment: SANGER: Inhibition of human MFE-296 cell growth in a cell viability assay.; assay type: functional, cell-based; conditions: Homo sapiens, MFE-296
PLC-PRF-5 = experiment: cells; assay type: functional, cell-based, Homo sapiens; conditions: Homo sapiens, PLC-PRF-5;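 further: growth inhibition of human PLC-PRF-5 cells, read out with a viability assay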
Description: SANGER: Inhibition of human PLC-PRF-5 cell growth in a cell viability assay.

RT-4 = experiment: SANGER: Inhibition of human RT4 cell growth in a cell viability assay.; assay type: functional, cell-based; conditions: Homo sapiens, RT-4
SK-CO-1 = experiment: cells; assay type: functional, cell-based, Homo sapiens; conditions: Homo sapiens, SK-CO-1;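 further: growth inhibition of SK-CO-1 cells, determined by a viability readout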
Description: SANGER: Inhibition of human SK-CO-1 cell growth in a cell viability assay.

SNG-M = experiment: cells; assay type: functional, cell-based, Homo sapiens; conditions: Homo sapiens, SNG-M
Description: SANGER: Inhibition of human SNG-M cell growth in a cell viability assay.

SNU-475 = experiment: cells; assay type: functional, cell-based, Homo sapiens; conditions: Homo sapiens, SNU-475
Description: SANGER: Inhibition of human SNU-475 cell growth in a cell viability assay.

TT = experiment: cells; assay type: functional, cell-based, Homo sapiens; conditions: Homo sapiens, TT
Description: SANGER: Inhibition of human TT cell growth in a cell viability assay.

CCF-STTG1 = experiment: cells; assay type: functional, cell-based, Homo sapiens; conditions: Homo sapiens, CCF-STTG1;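 further: growth inhibition of human CCF-STTG1 cells, determined with a cell viability read-out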
Description: SANGER: Inhibition of human CCF-STTG1 cell growth in a cell viability assay.

COLO 205 = experiment: cells; assay type: functional, cell-based, Homo sapiens; conditions: Homo sapiens, COLO 205
Description: SANGER: Inhibition of human COLO-205 cell growth in a cell viability assay.

| SMILES | IC50 (EW-12) | IC50 (NCI-H2107) | IC50 (Calu-1) | IC50 (Caov-3 cell line) | IC50 (EW-7) | IC50 (HCC1143) | IC50 (IPC-298) | IC50 (MDA-MB-468) | IC50 (MFE-296) | IC50 (PLC-PRF-5) | IC50 (RT-4) | IC50 (SK-CO-1) | IC50 (SNG-M) | IC50 (SNU-475) | IC50 (TT) | IC50 (CCF-STTG1) | IC50 (COLO 205) | also measured |
| --- | --- | --- | --- | --- | --- | --- | --- | --- | --- | --- | --- | --- | --- | --- | --- | --- | --- | --- |
| COc1cc(N2CCN(C)CC2)ccc1Nc1ncc2c(n1)N(C)c1ccccc1C(=O)N2C | > 8000 nM | > 8000 nM | – | – | – | – | – | – | – | – | – | – | – | – | – | – | – | IC50 (ECC12): > 8000 nM |
| COc1cc(-c2nn([C@H]3CC[C@H](N4CCN(C(C)=O)CC4)CC3)c3ncnc(N)c23)ccc1NC(=O)c1cc2ccccc2n1C | > 5120 nM | > 5120 nM | – | – | – | – | – | – | – | – | – | – | – | – | – | – | – | – |
| COc1cc2c(Nc3ccc(NC(=O)c4ccccc4)cc3)ncnc2cc1OCCCN1CCOCC1 | – | – | – | – | – | – | – | – | – | – | – | – | – | – | – | – | – | IC50 (H9): 930 nM; IC50 (NCI-H1666): > 4000 nM; IC50 (RH-18): > 4000 nM; IC50 (TGBC11TKB): > 4000 nM; IC50 (CHP-134): 1230 nM |
| Cc1cc([N+](=O)[O-])ccc1NS(=O)(=O)c1cc(Cl)ccc1Cl | – | – | 8640 nM | > 32000 nM | > 32000 nM | 1820 nM | 2690 nM | 1210 nM | 4700 nM | 1170 nM | > 32000 nM | 13400 nM | 2770 nM | > 32000 nM | 9130 nM | 12800 nM | 2550 nM | – |
| OCCCNc1cc(-c2ccnc(Nc3cccc(Cl)c3)n2)ccn1 | > 256 nM | 135 nM | – | – | – | – | – | – | – | – | – | – | – | – | – | – | – | – |
| Oc1ccc2ccccc2c1SSc1c(O)ccc2ccccc12 | – | – | > 32000 nM | > 32000 nM | > 32000 nM | > 32000 nM | > 32000 nM | > 32000 nM | > 32000 nM | > 32000 nM | > 32000 nM | > 32000 nM | > 32000 nM | > 32000 nM | > 32000 nM | > 32000 nM | > 32000 nM | – |
| Cc1ccc(-c2c(C(=O)CCl)n(CCCO)c3ncnc(N)c23)cc1 | > 4000 nM | > 4000 nM | – | – | – | – | – | – | – | – | – | – | – | – | – | – | – | – |
| CC(C)CCN1c2nc(Nc3cc(F)c(O)c(F)c3)ncc2N(C)C(=O)C1C (centres undefined) | – | – | – | – | – | – | – | – | – | – | – | – | – | – | – | – | – | IC50 (H9): 60.2 nM; IC50 (NCI-H1666): > 5000 nM; IC50 (RH-18): > 5000 nM; IC50 (TGBC11TKB): > 5000 nM; IC50 (CHP-134): 3490 nM |
| C=C(c1ccc(C(=O)O)cc1)c1cc2c(cc1C)C(C)(C)CCC2(C)C [BEXAROTENE] | – | – | > 8000 nM | > 8000 nM | > 8000 nM | > 8000 nM | > 8000 nM | > 8000 nM | > 8000 nM | > 8000 nM | > 8000 nM | > 8000 nM | > 8000 nM | > 8000 nM | > 8000 nM | > 8000 nM | > 8000 nM | – |
| CCC/C=C/C=C/C(=O)O[C@H]1/C(=C/C(=O)OC)C[C@H]2C[C@H]([C@@H](C)O)OC(=O)C[C@H](O)C[C@@H]3C[C@H](OC(C)=O)C(C)(C)[C@](O)(C[C@@H]4C/C(=C/C(=O)OC)C[C@H](/C=C/C(C)(C)[C@]1(O)O2)O4)O3 [BRYOSTATIN 1] | – | – | > 8 nM | > 8 nM | > 8 nM | > 8 nM | > 8 nM | > 8 nM | > 8 nM | > 8 nM | > 8 nM | > 8 nM | > 8 nM | > 8 nM | > 8 nM | > 8 nM | > 8 nM | – |
| COc1cccc2c1C(=O)c1c(O)c3c(c(O)c1C2=O)C[C@@](O)(C(=O)CO)C[C@@H]3O[C@H]1C[C@H](N)[C@H](O)[C@H](C)O1 [DOXORUBICIN] | – | – | 73.6 nM | 406 nM | 30.6 nM | > 1020 nM | 196 nM | 76.2 nM | 70.5 nM | 901 nM | > 1020 nM | 129 nM | 18.3 nM | > 1020 nM | > 1020 nM | 35.5 nM | 27 nM | – |
| C#Cc1cccc(Nc2ncnc3cc(OCCOC)c(OCCOC)cc23)c1 [ERLOTINIB] | > 2000 nM | > 2000 nM | – | – | – | – | – | – | – | – | – | – | – | – | – | – | – | IC50 (ECC12): 80.5 nM |
| Nc1ccn([C@@H]2O[C@H](CO)[C@@H](O)C2(F)F)c(=O)n1 [GEMCITABINE] | – | – | 220 nM | 54.1 nM | < 4 nM | > 1020 nM | 255 nM | 14.1 nM | 51.4 nM | > 1020 nM | > 1020 nM | 34 nM | < 4 nM | > 1020 nM | > 1020 nM | 31.4 nM | > 1020 nM | – |
| O=C(O)c1ccc(-c2c[nH]c3ncc(-c4ccccc4)cc23)cc1C1CCCC1 [GSK-650394] | – | – | > 16000 nM | > 16000 nM | > 16000 nM | > 16000 nM | > 16000 nM | > 16000 nM | 11300 nM | > 16000 nM | > 16000 nM | > 16000 nM | 1800 nM | > 16000 nM | > 16000 nM | 12600 nM | > 16000 nM | – |
| COc1cc2ncn(-c3cc(OCc4ccccc4C(F)(F)F)c(C(N)=O)s3)c2cc1OC [GW843682X] | > 256 nM | > 256 nM | – | – | – | – | – | – | – | – | – | – | – | – | – | – | – | – |
